This is an account of results in PubChem BioAssay (NCI).

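Growth conditions: 96-well plates. Treatment: test compound, 48 hours, 5 concentrations. Analysis: linear interpolation between bracketing concentrations; unreached endpoints set to highest concentration. At the GI50, growth is halved. TGI denotes the concentration required for complete inhibition of growth.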

Among the test systems are OVCAR-4 ovarian; 786-0 renal; MALME-3M melanoma; CCRF-CEM leukemia; OVCAR-5 ovarian; MOLT-4 leukemia; OVCAR-8 ovarian; RXF 393 renal; SK-MEL-28 melanoma; SNB-75 CNS.
Holding throughout (test): NCI anticancer screen, dose series, 48 h

For `O=C(c1cccs1)c1c(C(F)(F)F)n([O-])c2cc(F)c(F)cc2[n+]1=O`, the GI50 was 31.9 µM with OVCAR-4 ovarian; 4.44 µM in the experiment with 786-0 renal; 0.79 µM with MALME-3M melanoma; 0.18 µM with CCRF-CEM leukemia; 3.57 µM with OVCAR-5 ovarian; 0.498 µM in the experiment on MOLT-4 leukemia. The GI50 was 2.77 µM in the experiment on OVCAR-8 ovarian, 2.42 µM with RXF 393 renal and 1.91 µM in the experiment on SK-MEL-28 melanoma. Besides, the TGI in the experiment with OVCAR-4 ovarian is 50 µM; in the experiment on 786-0 renal, 8.75 µM; with MALME-3M melanoma it was 1.52 µM; with CCRF-CEM leukemia, 0.729 µM; with OVCAR-5 ovarian it was 5.58 µM; in the experiment with MOLT-4 leukemia, 7.84 µM. Further, the TGI in the experiment on OVCAR-8 ovarian was 5.16 µM; in the experiment on RXF 393 renal, 7.16 µM; in the experiment with SK-MEL-28 melanoma it was 3.7 µM.

`COc1ccc(-c2c(N)[n+]([O-])c3cc(C)c(C)cc3[n+]2[O-])cc1OC`: the TGI in the experiment with OVCAR-4 ovarian, in the experiment on 786-0 renal, with MALME-3M melanoma, with CCRF-CEM leukemia, in the experiment on OVCAR-5 ovarian and with SNB-75 CNS was greater than 100 µM in each case. Besides, the TGI with MOLT-4 leukemia, with OVCAR-8 ovarian and with SK-MEL-28 melanoma was greater than 100 µM each time.

As to `C=CC1=C(C)C2=NC1=CC1=NC(=C(CC)/C1=C/O)C=C1C=C3C(=O)C(C(=O)OC)C(=C4NC(=C2)C(C)C4CCC(=O)OC/C=C(\C)CCCC(C)CCCC(C)CCCC(C)C)C3=N1` (stereo not given) (tested in a mixture with another compound), the TGI in the experiment on OVCAR-4 ovarian, in the experiment with 786-0 renal, in the experiment with OVCAR-5 ovarian, in the experiment with SNB-75 CNS, in the experiment with MOLT-4 leukemia and in the experiment on OVCAR-8 ovarian was greater than 100 µM in each case. Besides, the TGI with SK-MEL-28 melanoma was greater than 100 µM.

For `O=C(O)C1Cc2nc[nH]c2CN1` (stereo not given), the TGI with OVCAR-4 ovarian, with 786-0 renal, with MALME-3M melanoma, in the experiment with CCRF-CEM leukemia, in the experiment with OVCAR-5 ovarian and with SNB-75 CNS was greater than 100 µM throughout. For the same compound, the TGI in the experiment with MOLT-4 leukemia, in the experiment on OVCAR-8 ovarian and in the experiment with SK-MEL-28 melanoma was greater than 100 µM throughout.

Turning to `Nc1nc(N)c(-c2ccccc2)c(C(=O)Nc2ccc(Cl)c(Cl)c2)n1`, the TGI in the experiment with OVCAR-4 ovarian, in the experiment on 786-0 renal, with MALME-3M melanoma, in the experiment on OVCAR-5 ovarian, in the experiment with SNB-75 CNS and in the experiment with MOLT-4 leukemia was greater than 100 µM each time. Moreover, the TGI with OVCAR-8 ovarian, in the experiment on RXF 393 renal and with SK-MEL-28 melanoma was greater than 100 µM in each case.

Turning to `COCCOC(C)C(/C=N/NC(N)=S)=N/NC(N)=S` (stereo not given), the GI50 in the experiment with OVCAR-4 ovarian was 0.0355 µM; in the experiment with 786-0 renal, greater than 100 µM; in the experiment on OVCAR-5 ovarian it was greater than 100 µM; in the experiment with SNB-75 CNS, greater than 100 µM; with MOLT-4 leukemia, 0.0558 µM; in the experiment with OVCAR-8 ovarian, greater than 100 µM. In addition, the GI50 in the experiment on RXF 393 renal and in the experiment on SK-MEL-28 melanoma was greater than 100 µM each time. In addition, the TGI with OVCAR-4 ovarian, with 786-0 renal, with OVCAR-5 ovarian, in the experiment on SNB-75 CNS, in the experiment on MOLT-4 leukemia and with OVCAR-8 ovarian was greater than 100 µM in each case. The TGI with RXF 393 renal and with SK-MEL-28 melanoma was greater than 100 µM in each case.

In the case of `NC1=C(c2nc(-c3cc4ccccc4oc3=O)cs2)C(c2ccco2)c2c(c3ccccc3oc2=O)O1` (stereo not given), the GI50 in the experiment with OVCAR-4 ovarian is 68.3 µg/mL; in the experiment with 786-0 renal, 20.2 µg/mL; in the experiment on MALME-3M melanoma, 120 µg/mL; with CCRF-CEM leukemia, 53.8 µg/mL; in the experiment on OVCAR-5 ovarian, greater than 150 µg/mL; with MOLT-4 leukemia, 119 µg/mL. For the same compound, the GI50 in the experiment with OVCAR-8 ovarian is greater than 150 µg/mL; in the experiment with RXF 393 renal, 17.3 µg/mL; in the experiment with SK-MEL-28 melanoma, greater than 150 µg/mL. The TGI in the experiment on OVCAR-4 ovarian is greater than 150 µg/mL; in the experiment with 786-0 renal, 71.3 µg/mL; with MALME-3M melanoma it was greater than 150 µg/mL; in the experiment with CCRF-CEM leukemia, 147 µg/mL; in the experiment with OVCAR-5 ovarian it was greater than 150 µg/mL; with MOLT-4 leukemia, greater than 150 µg/mL. The results for the TGI in the experiment with OVCAR-8 ovarian, with RXF 393 renal and in the experiment with SK-MEL-28 melanoma were greater than 150 µg/mL, 114 µg/mL and greater than 150 µg/mL, respectively.

On to `Cc1ccnc2c1NC(=O)c1cccnc1N2C1CC1`, for which the GI50 is greater than 100 µM in the experiment on OVCAR-4 ovarian; greater than 100 µM with 786-0 renal; greater than 100 µM in the experiment with CCRF-CEM leukemia; greater than 100 µM in the experiment on OVCAR-5 ovarian; 54.4 µM in the experiment on SNB-75 CNS; greater than 100 µM in the experiment with MOLT-4 leukemia. For the same compound, the GI50 in the experiment on OVCAR-8 ovarian, in the experiment with RXF 393 renal and in the experiment on SK-MEL-28 melanoma was greater than 100 µM each time. Also, the TGI in the experiment with OVCAR-4 ovarian, in the experiment on 786-0 renal, in the experiment on CCRF-CEM leukemia, with OVCAR-5 ovarian, in the experiment on SNB-75 CNS and in the experiment on MOLT-4 leukemia was greater than 100 µM in each case. Besides, the TGI in the experiment with OVCAR-8 ovarian, in the experiment on RXF 393 renal and in the experiment on SK-MEL-28 melanoma was greater than 100 µM throughout.

Take `C#C[C@]1(O)CC[C@H]2[C@@H]3CC=C4c5nc(Nc6ccc(OC)cc6OC)sc5CC[C@]4(C)[C@H]3CC[C@@]21C`: the GI50 was 4.44 µM in the experiment on OVCAR-4 ovarian; 0.504 µM in the experiment on 786-0 renal; 0.655 µM in the experiment with MALME-3M melanoma; 0.544 µM in the experiment on CCRF-CEM leukemia; 2.53 µM in the experiment with OVCAR-5 ovarian; 0.46 µM with MOLT-4 leukemia. Further, the GI50 in the experiment on OVCAR-8 ovarian was 3.2 µM; in the experiment with RXF 393 renal, 0.262 µM; in the experiment on SK-MEL-28 melanoma it was 0.712 µM. In addition, the TGI with OVCAR-4 ovarian was greater than 100 µM; in the experiment on 786-0 renal, 2.6 µM; in the experiment on MALME-3M melanoma, 2.85 µM; in the experiment with CCRF-CEM leukemia, 11 µM; with OVCAR-5 ovarian, 12.2 µM; with MOLT-4 leukemia, 4.69 µM. The results for the TGI in the experiment with OVCAR-8 ovarian, with RXF 393 renal and in the experiment on SK-MEL-28 melanoma were greater than 100 µM, 0.608 µM and 2.7 µM, respectively.

With `COC(=O)C1CCc2c(OC)ccc(OC)c2C1=O` (stereo not given), the TGI in the experiment on OVCAR-4 ovarian, in the experiment on 786-0 renal, in the experiment with MALME-3M melanoma, with CCRF-CEM leukemia, in the experiment on OVCAR-5 ovarian and in the experiment with MOLT-4 leukemia was greater than 100 µM in each case. In addition, the TGI in the experiment with OVCAR-8 ovarian and with SK-MEL-28 melanoma was greater than 100 µM each time.
